Measured values taken from patent publication US10111854B2, “Synthesis and use of amine-containing flavonoids as potent anti-leishmanial agents” (The Hong Kong Polytechnic University, priority 2014, dated 2018).

Legend:
[1] = system: L. donovani Ld39 promastigotes; test: Anti-promastigote activity (MTS assay), L. donovani Ld39; assay type: cell-based; settings: Leishmania donovani, 72 hours
Experimental: (§1) Promastigotes of visceral L. donovani Ld39 and LdHU3, and cutaneous L. amazonensis LV78, L. braziliensis UA847 and L. major FV1 were employed in the study. All strains were cultured in Schneider's Drosophila Medium (Invitrogen), pH 6.9 supplemented with 10% (v/v) heat inactivated fetal bovine serum (Hyclone) with 4 mM glutamine (Sigma) and 25 μg/mL gentamicin solution (Invitrogen) at 27° C. for 4 days. RAW264.7 cells were cultured in supplemented DMEM media with 10% heat inactivated FBS and 100 U/mL penicillin and 100 μg/mL of streptomycin. They were maintained at 37° C. in a humidified atmosphere with 5% CO2. The cells were split constantly after a confluent monolayer has been formed. The cells were harvested by a cell scraper.
(§2) Anti-promastigote activity was determined according to previous procedures (1) by Cell Titer 96® Aqueous Assay (Promega) that employed a tetrazolium compound. Promastigotes were seeded into 96-well flat bottom microtiter plate at 1×10^5 cells per well in a final volume of 100 μL medium and incubated with a series of concentrations of synthetic FM. Parasites were incubated at 27° C. for 72 hours. After 72 hours of incubation, 10 μL of MTS:PMS mixture [MTS:2-(4,5-Dimethylthiazol-2-yl-)-5-[3-(carboxymethoxy)phenyl]-2-(4-sulfophenyl)-2H-tetrazolium); PMS: phenazine methosulfate both purchased from Sigma] was added into each well of microtiter plate. The plate was then incubated at 27° C. for 4 hours for color development. After 4 hours of incubation, the OD values were determined at 490 nm using automatic microtiter plate reader (Bio-Rad).
(§3) IC50 values of known antileishmanials and the amine-containing flavonoid monomers of the present invention to promastigotes (L. amazonensis LV78, L major FV1, L. donovani HU3, L. donovani 39), macrophages (Raw 264.7 and PEM) and mouse fibroblast (L929) were determined. The anti-promastigotes activities and cytotoxicity of the amine-containing flavonoid monomers of the invention are shown in Table 1.

[2] = system: amastigotes (L. amazonensis LV78, L. braziliensis UA847, L. donovani HU3, L. donovani 39); test: Anti-amastigote activity, strain not given; assay type: cell-based; settings: strain not specified; visceral and cutaneous Leishmania; read-out: IC50 against amastigotes
Experimental: (§4) Mouse peritoneal elicited macrophages (PEM) were obtained as previously described (2). A round cover slip (12 mm in diameter) was placed into each well of 24-well culture plate. Mouse PEM were resuspended in supplemented DMEM media containing 10% heat inactivated FBS (v/v), 100 U/mL penicillin and 100 μg/mL streptomycin and seeded into each well at a cell density of 1×10^5 cells per 500 μL. Macrophages were allowed to attach overnight. Non-adherent cells were removed by gentle washing with un-supplemented DMEM media twice. Adherent macrophages were infected with late-log promastigotes at a parasite-to-macrophage ratio of 20:1 overnight at 37° C. with 5% CO2. Non-internalized promastigotes were removed by washing twice with un-supplemented DMEM media. Infected macrophages were further incubated in 500 μL of supplemented DMEM media in the presence or absence of FM for 72 hours at 37° C. After incubation, cover slips were stained with Giemsa and the percentage of macrophages infected and number of amastigotes per 100 macrophages was enumerated.
(§5) PEM cells were infected with late-log promastigotes (L. amazonensis LV78, L. braziliensis UA847, L. donovani HU3, L. donovani 39) for 24 hr at 37° C. Infected macrophages were then treated with various antileishmanials and incubated for 3 days at 37° C. After 3 days, the cover slips were stained with Giemsa. The number of amastigotes per 100 macrophages were determined and used to calculate IC50 values.

[3] = system: L. donovani HU3 amastigotes; test: Anti-amastigote activity in infected PEM, L. donovani HU3; assay type: cell-based; settings: for IC50: Leishmania donovani, 72 h, infected PEM, 3 days, Giemsa, SSG-sensitive
Experimental: as §4, §5

[4] = system: L. donovani HU3 promastigotes; test: Anti-promastigote activity (MTS assay), L. donovani HU3; assay type: cell-based; settings: Leishmania donovani, 72 hours
Experimental: as §1, §2, §3

[5] = system: L. donovani Ld39 amastigotes (SSG-resistant); test: Anti-amastigote activity in infected PEM, L. donovani Ld39; assay type: cell-based; settings: for IC50: Leishmania donovani, 72 h, infected PEM, 3 days, Giemsa, SSG-resistant
Experimental: as §4, §5

[6] = system: promastigotes (L. amazonensis LV78, L major FV1, L. donovani HU3, L. donovani 39); test: Anti-promastigote activity, strain not given; assay type: cell-based; settings: Leishmania amazonensis; strain not specified; read-out: IC50 against promastigotes
Experimental: as §2, §3

[7] = Cytotoxicity, L929 fibroblasts; assay type: cell-based, mouse; settings: mouse
Experimental: as §3

[8] = system: L. major FV1 promastigotes; test: Anti-promastigote activity (MTS assay), L. major FV1; assay type: cell-based; settings: Leishmania major, 72 hours
Experimental: as §1, §2, §3

[9] = system: L. amazonensis LV78 promastigotes; test: Anti-promastigote activity (MTS assay), L. amazonensis LV78; assay type: cell-based; settings: Leishmania amazonensis, 72 hours
Experimental: as §1, §2, §3

[10] = system: L. amazonensis LV78 amastigotes; test: Anti-amastigote activity in infected PEM, L. amazonensis LV78; assay type: cell-based; settings: for Selective index (a)/(b): IC50 RAW264.7 over IC50 L. amazonensis LV78 amastigotes; for IC50: Leishmania amazonensis, 72 h, infected PEM, 3 days, Giemsa
Experimental: as §4, §5

[11] = system: L. amazonensis and L. donovani HU3 promastigotes and amastigotes; test: Anti-promastigote and anti-amastigote activity of FM09, FM01 and FM05 derivatives; assay type: cell-based, Leishmania; settings: stage and strain not specified; read-out: IC50, anti-promastigote and anti-amastigote activity (Table 3C)
Experimental: Derivatives of FM09, FM01 and FM05 were synthesized and their anti-promastigote and anti-amastigote activity were determined (Table 3C). Many amine-containing flavonoid monomers have IC50 less than 5 μM, including FM09a, FM09b, FM09c, FM09e, FM09h, FM09i, FM09k, FM09l, FM01b and FM05b.

[12] = Cytotoxicity, peritoneal elicited macrophages (PEM); assay type: cell-based, mouse; settings: mouse, Cytotoxicity IC50, PEM
Experimental: as §4, §3

IC50 [2] [µM] | IC50 [3] [µM] | IC50 [4] [µM] | IC50 [6] [µM] | IC50 [8] [µM] | IC50 [9] [µM] | IC50 [10] [µM] | IC50 [11] [µM] | SMILES | IC50 [1] [µM] | IC50 [5] [µM] | IC50 [7] [µM] | Selective index (a)/(b) [10] | IC50 [12] [µM] | Selective index (a)/(c), (a) measured using PEM ([5]; IC50 PEM over IC50 L. donovani Ld39 amastigotes) | Selective index (a)/(b), (a) measured using PEM ([10]; IC50 PEM over IC50 L. amazonensis LV78 amastigotes) | Selective index (a)/(b) ([3]; IC50 RAW264.7 over IC50 L. donovani HU3 amastigotes) | Selective index (a)/(c) ([5]; IC50 RAW264.7 over IC50 L. donovani Ld39 amastigotes)
< 5 | > 10 | 0.4 ± 0.1 | < 5 | 2.1 ± 0.5 | 0.9 ± 0.3 | 3.4 ± 0.9 | – | O=c1cc(-c2ccc(OCCC3CCCCN3Cc3ccncc3)cc2)oc2ccccc12 (stereo not shown) [FM17, 2-(4-(2-(1-(pyridin-4-ylmethyl)piperidin-2-yl)ethoxy)phenyl)-4H-chromen-4-one] | 1.5 ± 0.5 | > 10 | > 100 | >29.4 | – | – | – | – | –
– | 3.5 ± 0.48 | 4.9 ± 0.78 | – | – | 7.41 ± 1.76 | 2.4 ± 0.37 | < 5 | Cc1cccc(CN(CCOCCOc2ccc(-c3cc(=O)c4ccccc4o3)cc2)Cc2cccc(C)n2)n1 [FM09e, 2-(4-(2-(2-(bis((6-methylpyridin-2-yl)methyl)amino)ethoxy)ethoxy)phenyl)-4H-chromen-4-one] | – | – | 18.8 ± 0.95 | – | – | – | – | – | –
– | > 10 | 1.4 ± 0.4 | < 5 | 9.5 ± 1.2 | 8.3 ± 1.9 | 6.7 ± 1.8 | – | O=c1cc(-c2ccc(OCCOCCNCc3ccncc3)cc2)oc2ccccc12 [FM08, 2-(4-(2-(2-((pyridin-4-ylmethyl)amino)ethoxy)ethoxy)phenyl)-4H-chromen-4-one] | 2.7 ± 0.9 | > 10 | > 33 | – | – | – | – | – | –
– | – | 0.47 ± 0.07 | – | – | 0.32 ± 0.05 | 0.56 ± 0.21 | < 5 | COc1ccnc(CN(CCOCCOc2ccc(-c3cc(=O)c4ccccc4o3)cc2)Cc2nccc(OC)c2OC)c1OC [FM09a, 2-(4-(2-(2-(bis((3,4-dimethoxypyridin-2-yl)methyl)amino)ethoxy)ethoxy)phenyl)-4H-chromen-4-one] | – | – | – | – | 10.4 ± 0.64 | – | – | – | –
< 5 | > 5 | 2.4 ± 0.5 | < 5 | 3.8 ± 0.7 | 2.8 ± 0.8 | 3.7 ± 1.7 | – | O=c1cc(-c2ccc(OCCOCCNCc3ccccc3)cc2)oc2ccccc12 [FM04, 2-(4-(2-(2-(benzylamino)ethoxy)ethoxy)phenyl)-4H-chromen-4-one] | 2.6 ± 0.5 | 6.8 | > 33 | – | 20.3 | – | – | – | –
– | 3.5 ± 1.01 | 6.15 ± 1.47 | – | – | 3.99 ± 0.99 | 2.42 ± 0.69 | < 5 | COc1ccnc(CN2CCN(CCOc3ccc(-c4cc(=O)c5ccccc5o4)cc3)CC2)c1OC [FM01b, 2-(4-(2-(4-((3,4-dimethoxypyridin-2-yl)methyl)piperazin-1-yl)ethoxy)phenyl)-4H-chromen-4-one] | – | – | 95.8 ± 4.25 | – | – | – | – | – | –
< 5 | > 10 | 1.8 ± 0.3 | < 5 | 5.4 ± 1 | 4.6 ± 0.6 | 4.7 ± 1 | – | CN(CCOc1ccc(-c2cc(=O)c3ccccc3o2)cc1)CCN(C)Cc1ccncc1 [FM02, 2-(4-(2-(methyl(2-(methyl(pyridin-4-ylmethyl)amino)ethyl)amino)ethoxy)phenyl)-4H-chromen-4-one] | 2.1 ± 0.6 | 9.6 | 22.1 ± 4 | – | 22 | – | – | – | –
< 5 | > 10 | 2.2 ± 0.5 | < 5 | 3.6 ± 0.7 | 2 ± 0.3 | 4.5 ± 1.8 | – | CN(C)CCOCCOc1ccc(-c2cc(=O)c3ccccc3o2)cc1 [FM06, 2-(4-(2-(2-(dimethylamino)ethoxy)ethoxy)phenyl)-4H-chromen-4-one] | 1.1 ± 0.1 | > 10 | > 33 | – | – | – | – | – | –
– | – | – | – | – | – | – | < 5 | O=c1cc(-c2ccc(OCCOCCN(Cc3cccnc3)Cc3cccnc3)cc2)oc2ccccc12 [FM09b, 2-(4-(2-(2-(bis(pyridin-3-ylmethyl)amino)ethoxy)ethoxy)phenyl)-4H-chromen-4-one] | – | – | – | – | – | – | – | – | –
< 5 | > 9 | 1.9 ± 0.4 | < 5 | 4.9 ± 0.4 | 5.5 ± 1 | 3.1 ± 0.1 | – | O=c1cc(-c2ccc(OC[C@@H]3CCCN3Cc3ccncc3)cc2)oc2ccccc12 [FM18, (S)-2-(4-((1-(pyridin-4-ylmethyl)pyrrolidin-2-yl)methoxy)phenyl)-4H-chromen-4-one] | 2.7 ± 0.9 | > 10 | 39.1 ± 2.5 | 17.0 | – | – | – | – | –
– | – | – | – | 22.6 ± 10.9 | 47.8 ± 18.7 | 4.5 | – | O=c1cc(-c2ccc(OCCOCCN(CCOCCO)Cc3ccncc3)cc2)oc2ccccc12 [FM21, 2-(4-(2-(2-((2-(2-hydroxyethoxy)ethyl)(pyridin-4-ylmethyl)amino)ethoxy)ethoxy)phenyl)-4H-chromen-4-one] | 3.4 ± 0.9 | 0.33 | 24 | – | 58.5 ± 4.3 | 177 | 13 | – | –
< 5 | > 10 | 1.1 ± 0.6 | < 5 | 5.7 ± 3.1 | 3.5 ± 1.1 | 2.5 ± 0.5 | – | O=c1cc(-c2ccc(OCC3CCN(Cc4ccncc4)CC3)cc2)oc2ccccc12 [FM13, 2-(4-((1-(pyridin-4-ylmethyl)piperidin-4-yl)methoxy)phenyl)-4H-chromen-4-one] | 0.7 ± 0.2 | 3.3 | > 100 | >40 | – | – | – | >10 | >33
< 5 | > 7 | 0.3 ± 0.1 | < 5 | 1.6 ± 0.6 | 1.4 ± 0.3 | 1.9 ± 0.5 | – | O=c1cc(-c2ccc(OCCN3CCCN(Cc4ccncc4)CC3)cc2)oc2ccccc12 [FM14, 2-(4-(2-(4-(pyridin-4-ylmethyl)-1,4-diazepan-1-yl)ethoxy)phenyl)-4H-chromen-4-one] | 1.4 ± 0.9 | 8.4 | 10.6 | 11.4 | – | – | – | – | –

SMILES | IC50 [2] [µM] | IC50 [3] [µM] | IC50 [4] [µM] | IC50 [6] [µM] | IC50 [8] [µM] | IC50 [9] [µM] | IC50 [10] [µM] | IC50 [11] [µM] | IC50 [1] [µM] | IC50 [5] [µM] | IC50 [7] [µM] | Selective index (a)/(b) [10] | IC50 [12] [µM] | Selective index (a)/(c), (a) measured using PEM ([5]; IC50 PEM over IC50 L. donovani Ld39 amastigotes) | Selective index (a)/(b), (a) measured using PEM ([10]; IC50 PEM over IC50 L. amazonensis LV78 amastigotes) | Selective index (a)/(b) ([3]; IC50 RAW264.7 over IC50 L. donovani HU3 amastigotes) | Selective index (a)/(c) ([5]; IC50 RAW264.7 over IC50 L. donovani Ld39 amastigotes)
O=C(COc1ccc(-c2cc(=O)c3ccccc3o2)cc1)N1CCCN(Cc2ccncc2)CC1 [FM15, 2-(4-(2-oxo-2-(4-(pyridin-4-ylmethyl)-1,4-diazepan-1-yl)ethoxy)phenyl)-4H-chromen-4-one] | < 5 | > 10 | 1.5 ± 0.3 | < 5 | 6.4 ± 1.7 | 4.8 ± 1.3 | > 9 | – | 1.8 ± 0.7 | 3.3 | 14.9 ± 2.6 | – | – | – | – | – | –
